Reference: patent US8716436B2 (priority 2010, dated 2014)
Converted amounts (≈) assume the structure as drawn. Where two headings read alike, the source gives them in different places. Where a SMILES comes first, the peptide text is derived from it.

Assays:
[1] = target: T1, human mu opioid receptor (Homo sapiens, UniProt P35372); experiment: biochemical; format: binding
T1 construct: expressed in transfected cells; host or cells: CHO cells

[2] = test system: glia; experiment: Glial activation (GFAP and phospho-p38 staining) after 1 week of treatment; details: rat, after 1 week intrathecal treatment
[3] = target: T2, cloned human delta opioid receptor (Homo sapiens, UniProt P41143); experiment: 35S-GTPγS functional assay, delta antagonism against ED80 dose of SNC80; format: biochemical; details: for Delta Antagonist efficacy: against ED80 dose of SNC80
T2 construct: expressed in transfected cells
T2 sequence (P41143 whole entry): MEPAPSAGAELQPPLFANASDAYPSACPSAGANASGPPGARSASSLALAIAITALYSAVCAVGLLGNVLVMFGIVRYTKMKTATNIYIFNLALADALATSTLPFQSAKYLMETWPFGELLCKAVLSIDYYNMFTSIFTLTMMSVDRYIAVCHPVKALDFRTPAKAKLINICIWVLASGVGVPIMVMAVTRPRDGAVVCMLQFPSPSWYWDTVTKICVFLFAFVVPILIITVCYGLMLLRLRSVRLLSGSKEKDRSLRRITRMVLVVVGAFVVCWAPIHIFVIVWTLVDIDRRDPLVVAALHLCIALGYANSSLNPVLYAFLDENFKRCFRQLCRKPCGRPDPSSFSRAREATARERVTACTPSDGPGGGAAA

[4] = target: T3, cloned human mu opioid receptor (Homo sapiens, UniProt P35372); experiment: biochemical; format: biochemical
T3 construct: expressed in transfected cells
T3 sequence (P35372 whole entry): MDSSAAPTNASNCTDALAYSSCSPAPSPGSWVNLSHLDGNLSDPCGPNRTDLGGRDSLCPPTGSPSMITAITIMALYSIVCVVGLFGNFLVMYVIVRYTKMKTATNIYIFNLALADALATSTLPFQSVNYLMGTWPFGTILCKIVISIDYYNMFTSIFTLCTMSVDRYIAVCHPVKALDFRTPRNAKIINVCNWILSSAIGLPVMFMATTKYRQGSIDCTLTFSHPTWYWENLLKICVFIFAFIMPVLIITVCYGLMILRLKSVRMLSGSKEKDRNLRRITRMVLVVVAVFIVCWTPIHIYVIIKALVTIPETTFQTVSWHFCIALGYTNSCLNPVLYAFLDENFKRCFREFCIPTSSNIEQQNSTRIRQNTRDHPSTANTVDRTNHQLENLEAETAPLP

[5] = target: T2, cloned human delta opioid receptor; experiment: biochemical
[6] = target: human delta opioid receptor (Homo sapiens, UniProt P41143); experiment: biochemical; format: binding
Chain of human delta opioid receptor (P41143 whole entry): as the sequence (P41143 whole entry) above

[7] = Conditioned place preference (CPP); details: rat, i.v., doses producing maximal antinociception
[8] = rat
[9] = Tolerance: intrathecal cumulative dose-response in tail-flick test before and after 1 week osmotic minipump; format: in vivo; details: rat; for ED50 antinociception on Day 7 after minipump implantation: morphine 2 μg/hr or analog 0.056 μg/hr for about 7 days; for ED50 antinociception in opioid naïve animals: before minipump
[10] = Morris Water Maze (spatial memory); details: rat, after 4 days of training
[11] = Rotorod test of motor coordination; details: rat, cumulative i.v. doses
[12] = Spared nerve injury (SNI) neuropathic pain, Randall-Selitto paw pressure; format: in vivo; details: rat SNI; for Reversal time of hyperalgesia (significantly above vehicle): intrathecal cumulative doses
[13] = target: cloned human kappa opioid receptor (Homo sapiens, UniProt P41145); experiment: biochemical
Chain of cloned human kappa opioid receptor (P41145 whole entry): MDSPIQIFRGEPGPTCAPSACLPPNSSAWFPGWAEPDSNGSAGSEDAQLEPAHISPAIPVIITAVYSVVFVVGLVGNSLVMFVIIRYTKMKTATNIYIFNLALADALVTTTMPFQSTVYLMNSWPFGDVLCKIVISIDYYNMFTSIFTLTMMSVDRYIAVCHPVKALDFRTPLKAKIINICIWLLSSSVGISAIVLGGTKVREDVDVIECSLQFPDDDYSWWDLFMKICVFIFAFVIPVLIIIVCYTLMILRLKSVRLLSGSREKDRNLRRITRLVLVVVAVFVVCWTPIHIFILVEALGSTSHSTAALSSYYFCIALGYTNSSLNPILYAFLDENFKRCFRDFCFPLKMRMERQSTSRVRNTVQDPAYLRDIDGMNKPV

[14] = target: human kappa opioid receptor (Homo sapiens, UniProt P41145); experiment: biochemical; format: binding
Chain of human kappa opioid receptor (P41145 whole entry): as above

[15] = Tail-flick (TF) antinociception after i.v. administration; format: in vivo; details: rat; for Antinociception (tail-flick): i.v., 5.6 mg/kg
[16] = Solubility; format: physicochemical
Method: The solubility of the peptides of Formula I (e.g., in saline or physiologic buffer) typically is enhanced relative to the prior art tetrapeptide analogs of the endomorphins Addition of a hydrophilic amino acid and amidated C-terminus to the relatively hydrophobic tetrapeptide sequences Tyr-cyclo[D-Lys-Trp-Phe] (SEQ ID NO:10) and Tyr-cyclo[D-Lys-Phe-Phe] […] For example, Compound 1 was soluble in water, saline and 20% PEG/saline at about 43, 21 and 90 mg/mL, respectively, compared to less than about 2 mg/mL for the previously described compounds. While increases in solubility are associated with improved pharmaceutical delivery properties, higher solubility is also often associated with reduced functional activity (e.g., receptor binding) that may depend on lipophilicity.

T1 sequence (P35372 whole entry): as the sequence (P35372 whole entry) above

NC(=O)[C@@H]1CC(=O)NCCCC[C@@H](NC(=O)[C@@H](N)Cc2ccc(O)cc2)C(=O)N[C@@H](Cc2c[nH]c3ccccc23)C(=O)N[C@@H](Cc2ccccc2)C(=O)N1 [Compound 5, Tyr-c[D-Lys-Trp-Phe-Asp]-NH2]
Ki [1]: 0.00043 µM
Glial activation (integrated density of GFAP and pp38 staining) [2]: activation was not significantly different from vehicle
IC50 [3]: 0.557 µM
Delta Antagonist efficacy [3]: 100
EC50 [4]: 0.00022 µM
EC50 [5]: > 100 µM
Ki [6]: 0.14 µM
Conditioned place preference (time spent on the drug side) [7]: no significant CPP

CN1CC[C@]23c4c5ccc(O)c4O[C@H]2[C@@H](O)C=C[C@H]3[C@H]1C5 [Morphine, morphine, reference compound]
Self-administration [8]: resulted in significant self-administration
ED50 antinociception on Day 7 after minipump implantation [9]: 16 ± 3.3 µg
ED50 antinociception in opioid naïve animals ([9]; tail-flick): 0.253 µg
Glial activation (integrated density of GFAP and pp38 staining) [2]: produced significant glial activation
Impairment of spatial memory (latency to and distance from platform) [10]: produced impairment of spatial memory
Motor impairment (rotorod) [11]: significantly above that of vehicle controls
Dose required to fully (100%) reverse hyperalgesia ([12]; intrathecal): about 1.14 μg
Reversal time of hyperalgesia (significantly above vehicle) [12]: about 80 min
Conditioned place preference (time spent on the drug side) [7]: increase in the time spent on the drug side

N[C@@H](Cc1ccc(O)cc1)C(=O)N[C@@H]1CCCCNC(=O)[C@H](Cc2ccccc2)NC(=O)[C@H](Cc2ccccc2)NC1=O [ck2, Tyr-c[D-Lys-Phe-Phe], reference compound] (HELM PEPTIDE1{Y.[dK].F.F}$PEPTIDE1,PEPTIDE1,2:R3-4:R2$$$V2.0; bridges inferred)
Ki [1]: 0.00036 µM
EC50 [13]: 0.206 µM
Selectivity kappa/mu (activation) [13]: 1374
EC50 [4]: 0.00015 µM
EC50 [5]: 0.007 µM
Selectivity delta/mu (activation) [5]: 44
Ki [6]: 0.003 µM
Selectivity Delta/Mu (binding) [6]: 9
Ki [14]: 0.012 µM
Selectivity Kappa/Mu (binding) [14]: 33

NC(=O)[C@@H]1CCCCNC(=O)CC[C@@H](NC(=O)[C@@H](N)Cc2ccc(O)cc2)C(=O)N[C@@H](Cc2ccccc2)C(=O)N[C@@H](Cc2ccccc2)C(=O)N1 [Compound 2, Tyr-c[D-Glu-Phe-Phe-Lys]-NH2]
Shift in ED50 (tolerance) ([9]; after 1 week minipump): about 8.5 fold
ED50 antinociception on Day 7 after minipump implantation [9]: about 0.11±0.02 μg
Potency relative to morphine on a molar basis ([9]; tail-flick): about 40 fold
ED50 antinociception in opioid naïve animals ([9]; tail-flick): 0.01 µg
Ki [1]: 0.00073 µM
Glial activation (integrated density of GFAP and pp38 staining) [2]: activation was not significantly different from vehicle
Impairment of spatial memory (latency to and distance from platform) [10]: did not produce significant impairment
IC50 [3]: 2.75 µM
Delta Antagonist efficacy [3]: 51
Antinociception (TF latency) relative to morphine ([15]; cumulative i.v. doses, at 135 and 155 minutes): significantly longer antinociception
Antinociception (tail-flick) [15]: antinociception similar to the 10 mg dose of morphine
Motor impairment (rotorod) [11]: significantly less than that of morphine
EC50 [4]: 0.00099 µM
EC50 [5]: > 100 µM
Ki [6]: 0.069 µM
Reversal time of hyperalgesia (significantly above vehicle) [12]: ~260 min
Conditioned place preference (time spent on the drug side) [7]: no significant CPP

Tyr-c[D-Lys-Trp-Phe-Glu]-Gly-NH2 [Compound 3]
Delta Antagonist efficacy [3]: full efficacy delta antagonism

N[C@@H](Cc1ccc(O)cc1)C(=O)N[C@@H]1CCCCNC(=O)[C@H](Cc2ccccc2)NC(=O)[C@H](Cc2c[nH]c3ccccc23)NC1=O [ck1, Tyr-c[D-Lys-Trp-Phe], reference compound] (HELM PEPTIDE1{Y.[dK].W.F}$PEPTIDE1,PEPTIDE1,2:R3-4:R2$$$V2.0; bridges inferred)
Ki [1]: 0.00032 µM
EC50 [13]: 0.47 µM
Selectivity kappa/mu (activation) [13]: 2236
EC50 [4]: 0.00021 µM
EC50 [5]: 0.138 µM
Selectivity delta/mu (activation) [5]: 658
Ki [6]: 0.028 µM
Selectivity Delta/Mu (binding) [6]: 90
Ki [14]: 0.035 µM
Selectivity Kappa/Mu (binding) [14]: 111

NC(=O)[C@@H]1CCC(=O)NCCCC[C@@H](NC(=O)[C@@H](N)Cc2ccc(O)cc2)C(=O)N[C@@H](Cc2c[nH]c3ccccc23)C(=O)N[C@@H](Cc2ccccc2)C(=O)N1 [Compound 1, Tyr-c[D-Lys-Trp-Phe-Glu]-NH2]
Ki [1]: 0.00049 µM
solubility ([16]; 20% PEG/saline, read-out: Solubility in 20% PEG/saline): ~90 mg/mL (≈ 120 mM)
solubility ([16]; saline, read-out: Solubility in saline): ~21 mg/mL (≈ 27.9 mM)
solubility ([16]; water, read-out: Solubility in water): ~43 mg/mL (≈ 57.1 mM)
Glial activation (integrated density of GFAP and pp38 staining) [2]: activation was not significantly different from vehicle
IC50 [3]: 0.105 µM
Delta Antagonist efficacy [3]: full efficacy delta antagonism
Delta Antagonist efficacy ([3]; listed as Comp. 1): 93
Antinociception (TF) relative to morphine ([15]; cumulative doses, about 140 to 180 minutes after injection): greater antinociception
Antinociception (tail-flick) [15]: antinociception similar to the 10 mg dose of morphine
Agonist EC50 mu [4]: significantly greater potency than the reference compound, DAMGO
Agonist efficacy at the mu receptor [4]: full efficacy agonist
EC50 [4]: 0.00015 µM
EC50 [5]: > 100 µM
Ki [6]: 0.132 µM
Time at which scores were significantly above those of morphine ([12]; intrathecal): 155 to 215 min
